The record followed here is patent publication US7498406B2, “Substantially cell membrane impermeable compound and use thereof” (priority 1999, dated 2009).

In data set [1] the test system is PBMC. The experiment in a line: Cell number and cell viability in the PBMC HIV assay. The settings on record: 10 μM. How it is done: PBMC's (1×10^6 per mL) were incubated with GSAA or GSAO (10 μM) for 30 minutes at 37° C. and then with primary HIV isolates (HN11, HN68 or HN70 at 50 TCID50 per 10^6 cells) for 2 hours at 37° C. Cells were washed and incubated in complete medium containing GSAA or GSAO (10 μM) at 5% CO2 and 37° C. for up to 7 days. At the indicated times the conditioned medium was collected and assayed for p24 antigen and cell number and cell viability was determined.
The primary HIV isolates, HN11, HN68 and HN70, were provided by Dr. Hassan Naif, Centre for Virus Research, Westmead Millennium Institute, NSW, Australia. […] The blood was diluted 1:2 with PBS, layered onto Ficoll-Hypaque (35 mL blood onto 15 mL Ficoll-Hypaque) in 50 mL Falcon tubes and centrifuged at 400 g for 20 minutes at 20° C. The PBMC's were collected and pelleted at 1200 rpm for 10 minutes to remove platelets, resuspended at 2×10^6 cells per mL in RPMI containing 20% horse serum (Gibco BRL, Gaithersburg, Md.), 10 μg per mL phytohemagglutinin-M (PHA-M, Boehringer Mannheim Biochemica, Mannheim, Germany) and […] interleukin-2 (Sigma, St. Louis, Mo.) and incubated for 2 days at 5% CO2 and 37° C., PBMC (1×10^6 per mL) were incubated with GSAO or GSAA (10 μM) for 30 minutes at 37° C. in serum-free media. Virus was added at 50 TCID50 per 10^6 cells for 2 hours at 37° C.. […]

Data set [2] can be described thus: Binding of GSAO to dithiol, loss of thiols in DTNB assay. The settings on record: for Kd: errors are 1 SD, read-out: Dissociation Constant. Here is the method: (§1) FIG. 12. Interaction of GSAO with synthetic, peptide and protein dithiols. DMP (A) (15 μM), 6,8-thioctic acid (B) ([…]), dithiothreitol (C) (8.5 μM), TrpCysGlyProCysLys (D) (4.6 μM), TrpCysGlyHisCysLys (E) (5.5 μM) or thioredoxin (F) (4.1 μM corresponding to 20.6 μM thiols) was incubated with GSAO (0-56 μM) for 10 minutes. DTNB (950 μM) was then added and the reactions incubated for a further 10 minutes. The concentration of thiol in the reactions was determined from the absorbance of the TNB dianion at 412 nm. The solid lines represent the best non-linear least squares fit of the data to Equation 1 (A to E) or Equation 2 (F) and have been drawn using the parameter estimates in Table 1. The dotted line in part A represents a simulated titration assuming an infinite affinity of GSAO for the dithiol. GSAO bound to both synthetic, peptide and protein dithiols with dissociation constants in the range 130 nM to 1.4 μM.
A stock solution of DMP (5 μL, 50 μmol) was dissolved in DMSO (995 μL), giving a concentration of 50 mM DMP, A second dilution of the 50 mM DMP stock solution (10 μL) in pH 7.0 buffer (0.1 M HEPES, 0.3 M NaCl, 1 mM EDTA) (990 μL) gave a working solution of 500 ? M DMP. The activity of the arsenical could then be determined by the titration of varying amounts of arsenical against the DMP working solution (10 μL) in a 96-well microtitre plate, with the total volume made up to 195 μL by addition of buffer. After a 10 minute incubation at room temperature, during which time the solutions were agitated on a plate shaker, 5 μL of a 37.9 mM stock solution of DTNB (15 mg) in DMSO (1 mL) was added, and the plate incubated with shaking for another 10 minutes. The absorbance at 412 nm due to the formation of the TNB dianion was measured using a Molecular Devices Thermomax Plus (Palo Alto, Calif.) microplate reader. The extinction coefficient for the TNB dianion at pH 7.0 is 14, 150 M^−1cm^−1 at 412 nm (Riddles et al., 1983).
Binding of GSAO to dithiols was measured from loss of thiols using the DTNB assay described above. The dissociation constant, Kd, for GSAO binding to dithiols was determined by incubating increasing concentrations of GSAO, I, with a fixed dithiol concentration, [S]T, and measuring the remaining dithiol using DTNB. Note that the concentration of dithiol equals half the TNB concentration. The concentration of dithiol.GSAO complex, SI, as a function of the total GSAO concentration, [I]T, is described by Equation 1 (Hogg and Jackson, 1990), [SI]=0.5.{([S]T+x.[I]T+Kd)−(([S]T+x.[I]T+Kd)^2−4.[S]T.x.[I]T)^0.5} (1)
where x is a factor that, when multiplied together with [I]T, will yield the active concentration of GSAO. […]

A short description of data set [3]: Interaction of GSAO with synthetic, peptide and protein dithiols. The settings on record: read-out: dissociation constants, range over the dithiols. It is filed as binding. How it is done:
as §1
Binding of GSAO to dithiols was measured from loss of thiols using the DTNB assay described above. The dissociation constant, Kd, for GSAO binding to dithiols was determined by incubating increasing concentrations of GSAO, I, with a fixed dithiol concentration, [S]T, and measuring the remaining dithiol using DTNB. Note that the concentration of dithiol equals half the TNB concentration. […]

On to `NC(CCC(=O)NC(CSCC(=O)Nc1ccc([As]=O)cc1)C(=O)NCC(=O)O)C(=O)O` (stereo not shown) [GSAO, 4-(N-(S-glutathionylacetyl)amino)-phenylarsenoxide], for which the “proliferation of PBMC's” value in data set [1] is reported as “inhibited proliferation”. Moreover, in data set [1] (7 days), the “viability of PBMC's” value is given as “no effect of cell viability”. Also, in data set [2] (DMP 15 μM, GSAO 0-50 μM, 10 minutes), the “interaction with DMP in DTNB titration” value was “bound to DMP and prevented interaction of the dithiol with DTNB”. Besides, the Kd was 130 nM in data set [2] (ring size 5), 200 ± 50 nM in data set [2] (ring size 6), 420 nM in data set [2] (ring size 7) and 130 to 1400 nM in data set [3].
